{"source": "ChEMBL document CHEMBL1157539", "about": "“Thousands of chemical starting points for antimalarial lead identification” (Nature, 2010)"}
{"test_system": "Plasmodium falciparum", "experiment": "GSK_TCMDC: Inhibition of Plasmodium falciparum 3D7 in whole erythrocytes, using parasite LDH activity as an index of growth.", "format": "functional, organism-based", "conditions": "Plasmodium falciparum, 3D7", "units": {"XC50": "nM"}}
{"compound": "Cc1ccc(CN2CCN(c3cc4c(cc3Cl)CCN4C(=O)Cc3ccc(Cl)c(NC(=O)Nc4cccc(C#N)c4)c3)CC2)cc1", "XC50": 1130}
{"compound": "Oc1cccc(C2CCCN(CCc3c[nH]c4ccccc34)C2)c1", "note": "(stereo not drawn)", "XC50": 857}
{"compound": "COc1ccc(NC(=O)c2ccc(Br)c(C)c2)cc1N1CCN(Cc2ccccc2)CC1", "XC50": 918}
{"compound": "Cc1cccnc1Nc1nc(-c2ccccn2)cs1", "XC50": 687}
{"compound": "CCc1ccc(CN2CCC(C(=O)Nc3ccc(-c4nc5ccccc5[nH]4)cc3)CC2)o1", "XC50": 610}
{"compound": "Cc1cc(-c2cc(Cl)ccc2Cl)no1", "XC50": 168}
{"compound": "COc1ccc(-c2ccc(NC(=O)c3ccc(C#N)cc3)cc2)cc1CN1CCCC1", "XC50": 873}
{"compound": "O=C(/C=C/c1ccc(Cl)c(Cl)c1)NC1CCN(Cc2ccc(O)cc2)CC1", "XC50": 691}
{"compound": "CC(C)CNCc1cccc(-c2cccc(CNC3CCN(Cc4ccccc4)CC3)c2)c1", "XC50": 183}
{"compound": "CNC(=O)c1cncc(/C=C/c2ccccc2S(N)(=O)=O)c1", "XC50": 694}
{"compound": "O=C(NC1CC1)c1cnc(N2CCC(Cc3ccccc3)CC2)c(Cl)c1", "XC50": 672}
{"compound": "CC(=O)Nc1ccc(C(=O)Nc2cccc(-c3cccc(-c4nc5cccc(C)c5[nH]4)c3)c2)cn1", "XC50": 64.7}
{"compound": "c1ccc(CN2CCC(NCc3ccccc3-c3cccc(CNC4CCCC4)c3)CC2)cc1", "XC50": 718}
{"compound": "Cc1ccc(NC(=O)c2ccc(CN3CCCN(CCC(C)C)CC3)cc2)cc1F", "XC50": 609}
{"compound": "Cc1cccc2nc(-c3ccc(-c4ccc(CN5CCN(CC6CCCN(C)C6)CC5)cc4)s3)[nH]c12", "note": "(stereo not drawn)", "XC50": 142}
{"compound": "C=C[C@H]1CN(CCCCCCC)CC[C@H]1CCN(C)c1ccnc2ccc(OC)cc12", "XC50": 446}
{"compound": "CCC(C)OC(=O)C1=C(C)NC2=C(C(=O)CC(c3ccc(OC)c(OC)c3)C2)C1c1ccc(O)cc1", "note": "(stereo not drawn)", "XC50": 218}
{"compound": "CCN1C(=O)C(CC(=O)Nc2cccc(Cl)c2)N(Cc2ccc(OC)c(OC)c2)C1=S", "note": "(stereo not drawn)", "XC50": 607}
{"compound": "Cc1c(CC(=O)NCCC2CCN(CCCCCNC(=O)/C=C/c3ccc(Cl)c(Cl)c3)CC2)sc2ccc(Cl)cc12", "XC50": 880}
{"compound": "O=C(Nc1ccc(F)c(F)c1)c1ccc(CN2CCCN(Cc3cccc(O)c3)CC2)cc1", "XC50": 836}
{"compound": "CCCCCCN1CCC(NCc2ccc(C)cc2)CC1", "XC50": 860}
{"compound": "CC(C)NC(C)(C)CN(Cc1ccc(-c2ccc(C(F)(F)F)cc2)cc1)C(=O)Cn1c(CCc2cccc(F)c2F)nc(=O)c2ccccc21", "XC50": 908}
{"compound": "CC(Cc1ccc(NC(=O)CCCc2ccccc2)cc1)NCCc1cccc(Cl)c1", "note": "(stereo not drawn)", "XC50": 945}
{"compound": "N#Cc1ccc(-c2ccc(C(=O)NCC3CCN(CCN4CCC(c5ccc6c(c5OCC(N)=O)CCCC6)CC4)CC3)cc2)cc1", "XC50": 443}
{"compound": "CC(Cc1ccc(NC(=O)c2ccc(NCCc3ccccc3)cc2)cc1)NCCc1cccc(Cl)c1", "note": "(stereo not drawn)", "XC50": 854}
{"compound": "CC(=O)Nc1ccc(C(=O)Nc2cccc(-c3csc(-c4nc5ccccc5[nH]4)c3)c2)cn1", "XC50": 119}
{"compound": "O=C(COc1ccccc1)Nn1cnc2ccccc21", "XC50": 1050}
{"compound": "CC(C)Sc1nncc(-c2cnnc(SC(C)C)n2)n1", "XC50": 141}
{"compound": "O=C(COc1cnc2ccccc2n1)Nc1ccccc1Sc1ccc(Cl)cc1", "XC50": 728}
{"compound": "CCOc1cc(C(=O)NC2CC(C)(C)NC(C)(C)C2)ccc1-c1cc2cc(Cl)c(Cl)cc2[nH]1", "XC50": 770}
{"compound": "CCCCOC(=O)NCCCC[C@H](NC(=O)OC(C)(C)C)C(=O)N[C@H](C(=O)OC(c1ccccc1)c1ccccc1)[C@H]1O[C@@H](n2ccc(=O)[nH]c2=O)[C@@H]2OC(C)(C)O[C@@H]21", "XC50": 1090}
{"compound": "c1ccc2[nH]c(-c3ccc(-c4ccc(CN5CCC(N6CCCCC6)CC5)cc4)s3)nc2c1", "XC50": 153}
{"compound": "CCCCc1ccc2[nH]cc(C3=CCN(C)CC3)c2c1Br", "XC50": 627}
{"compound": "Cc1cccc2nc(-c3ccc(-c4ccc(NC(=O)Nc5ccc(Cl)cc5)cc4)cc3)[nH]c12", "XC50": 100}
{"compound": "COC(=O)c1cccc(OCCNC2CCN(C[C@H](O)c3ccnc4ccc(OC)cc34)CC2)c1", "XC50": 342}
{"compound": "O=S(=O)(c1cc(Cl)sc1Cl)N(CCC(O)(C(F)(F)F)C(F)(F)F)Cc1cccc(O)c1", "XC50": 744}
{"compound": "COc1ccc2nccc([C@@H](O)CN3CCC(NC(=O)/C=C/c4ccc5[nH]c(=O)ccc5c4)CC3)c2c1", "XC50": 967}
{"compound": "Nc1ncc(-c2ccccc2)cc1-c1nc2cc(Cl)c(F)cc2[nH]1", "XC50": 263}
